The subject of this data set is SD masculine rats with hypohepatia. In kind it is in vivo. The settings on record: hepatoxic drug alone after carbon tetrachloride. On the procedure: Carbon tetrachloride was administered orally as a hepatoxic substance to SD masculine rats (weighing 500 g ± 50 g; age, 10 months) with hypohepatia (3 groups containing 8-9 rats each) at a dose of 0.5 g/kg, whereby their serum GOT was increased to more than 50 Karmen units after 24 hours. At the same time, 2 mg/kg of indomethacin as a hepatoxic drug (a lenitive), 5 mg/kg of 5-FU as a hepatoxic carcinostatic and 10 mg/kg of tetracycline as a hepatoxic antibiotic were administered orally to each of the animals five times every fourth day.
An additional 20 mg/kg of the composition of Preparation Ex. 1 was administered orally to the medicated group.
Seven days after the completion of medication, the animals were slaughtered to remove the livers, which were then visually observed. Afterwards, the tissue slices were observed under an optical microscope to examine the degree of heteroplasia of the liver cells.
The GOT eluates due to cytoclasis were determined by gathering blood from the tail vein of each animal 24 hours after the administration of carbon tetrachloride, two and ten days after the initiation of medication and on the final date of experimentation.

Where two headings read alike, the source gives them in different places.

As to `O=c1[nH]cc(F)c(=O)[nH]1` [5-FU, 5-fluorouracil], the mortality entry is “some animals died”.

With `COc1ccc2c(c1)c(CC(=O)O)c(C)n2C(=O)c1ccc(Cl)cc1` [Indomethacin], the mortality entry was “some animals died”. Further, under “2 days after the initiation of medication”, the “serum GOT” value is on record as 81.3±4.21 Karmen units/ml. The “serum GOT” value (10 days) was 91.8±8.35 Karmen units/ml. For the same molecule, the “serum GOT” value (Final Date) is 99.4±1.43 Karmen units/ml.

The record behind these values is patent publication EP0435693B1, “Pharmaceutical compositions containing 3-oxygermylpropionic acid polymers for inhibiting the degeneration of cells” (SANWA KAGAKU KENKYUSHO CO., LTD., priority 1989, dated 1991).
